{"source": "patent US20170304228A1", "about": "“NEW INDICATION OF CINACALCET HCL PHARMACEUTICAL COMPOSITION FOR TREATING CANCER” (LAUNX BIOMEDICAL CO., LTD., priority 2014, published 2017)", "type_in_all_cases": "cell-based", "key": {"[1]": {"test_system": "HepG2", "experiment": "Cell viability analysis (WST-1), HepG2", "settings": "Homo sapiens, read-out: survival rate (viability) of cells", "experimental": "(§1) The cell numbers were counted and reseed as 2×10^6 in culture plate/flask. Then, the culture medium were added to a volume of 10 ml, and the cells were cultured for 2-3 days. Then, the cells were suspended for loading into 96-well plates. The number of cells was 3000 and the volume of the culture medium was 100 μl each well.\n(§2) Removing the original culture medium from 96-well plate. Then add 100 μl of commercially drug at a concentration of 10 μM per well. After 72 hours, add the diluted WST-1 reagent to the well with 100 μl/well, and the diluted WST-1 reagent was acquired from the dilution of 9:1 medium and WST-1 stock reagent. Finally, the total volume of each well was 200 μl/well. Culture the 96-well plate at 37° C. for 30 to 90 minutes. Detecting and calculate the survival rate of each cancer cells with an ELISA reader at OD450 nm. The lower viability of cancer cells represents better inhibition effect via the Cinacalcet HCl drug. Otherwise, the higher viability of cancer cells represents worse inhibition effect via the Cinacalcet HCl drug.\n(§3) This inhibition test of Cinacalcet HCl on gastrointestinal tract-related cancer cells were using gastric cancer cell lines AGS and MKN-45 (Table 9), hepatic cancer cell lines HepG2 and Hep3B (Table 10), colorectal cancer cell lines HCT116-wt and LoVo (Table 11), pancreatic cancer cell line AsPC-1 and BxPC-3(Table 12), tongue cancer cell line SAS (Table 13). The inhibitory tests of Cinacalcet HCl were performed 4 times for each cell lines and then the average value of the inhibitory tests was calculated."}, "[2]": {"test_system": "AGS", "experiment": "Cell viability analysis (WST-1), AGS", "settings": "Homo sapiens, read-out: survival rate (viability) of cells", "experimental": "as §1, §2, §3"}, "[3]": {"test_system": "HCT116-wt", "experiment": "Cell viability analysis (WST-1), HCT116-wt", "settings": "read-out: survival rate (viability) of cells", "experimental": "as §1, §2, §3"}, "[4]": {"test_system": "AsPC-1", "experiment": "Cell viability analysis (WST-1), AsPC-1", "settings": "Homo sapiens, read-out: survival rate (viability) of cells", "experimental": "as §1, §2, §3"}, "[5]": {"test_system": "H1650", "experiment": "Cell viability analysis (WST-1), H1650", "settings": "Homo sapiens, read-out: survival rate (viability) of cells", "experimental": "as §1\nas §2, with “Culture the 96-well plate at 37° C. for 30 to 90 minutes.” left out\nThis inhibition test of Cinacalcet HCl on pleural-related cancer cells were using two lung cancer cell lines A549 and H1650. The inhibitory tests of Cinacalcet HCl were performed 4 times for each cell lines and then the average value of the inhibitory tests was calculated."}, "[6]": {"test_system": "skin cancer cells", "experiment": "Summary of cell viability, skin cancer cells", "settings": "72 hours, read-out: Inhibitory effect", "experimental": "as §1, §2\n(§4) Cinacalcet HCl is having different inhibitory effect on different tumor cell type even in the same cancer. […] (FIG. 1)"}, "[7]": {"experiment": "Cell viability analysis (WST-1), normal pulmonary epithelial cell line BEAS-2B", "settings": "human, BEAS-2B cells (normal pulmonary epithelial cell line)", "from_the_text": "Subculture the different types of cancer cells. The cancer cells includes lung cancer, gastric cancer, hepatic cancer, colon cancer, skin cancer, cervical cancer, prostate cancer, bladder cancer, breast cancer, leukemia, pancreatic cancer, ovarian cancer, tongue cancer, osteosarcoma, and renal cancer. The normal cells used in the control group included kidney cell (HEK293) and human bronchial epithelial cell line BEAS-2B (as shown in Table 1).\nas §1, §2\nThis inhibition test of Cinacalcet HCl on normal cells were using normal kidney cell line HEK293 (Table 16), normal pulmonary epithelial cell lines […] BEAS-2B (Table 17). The inhibitory tests of Cinacalcet HCl were performed 4 times for each cell lines and then the average value of the inhibitory tests was calculated The results were shown in Tables 16 and Tables 17."}, "[8]": {"test_system": "TOV-21G", "experiment": "Cell viability analysis (WST-1), TOV-21G", "settings": "Homo sapiens, TOV21G, read-out: survival rate (viability) of cells", "experimental": "as §1, §2\n(§5) This inhibition test of Cinacalcet HCl on endocrine-related cancer cells were using prostate cancer cell lines PC-3 and LNCap (Table 6), breast cancer cell lines MCF7 and MDA-MB-231 (Table 7), and ovarian cancer cell lines NIH-OVCAR-3 and TOV-21G (Table 8). The inhibitory tests of Cinacalcet HCl were performed 4 times for each cell lines and then the average value of the inhibitory tests was calculated."}, "[9]": {"test_system": "PC-3", "experiment": "Cell viability analysis (WST-1), PC-3", "settings": "Homo sapiens, read-out: survival rate (viability) of cells", "experimental": "as §1, §2, §5"}, "[10]": {"test_system": "Hep3B", "experiment": "Cell viability analysis (WST-1), Hep3B", "settings": "Homo sapiens, read-out: survival rate (viability) of cells", "experimental": "as §1, §2, §3"}, "[11]": {"test_system": "cervical cancer cells", "experiment": "Summary of cell viability, cervical cancer cells", "settings": "72 hours, read-out: Inhibitory effect", "experimental": "as §1, §2, §4"}, "[12]": {"test_system": "pancreatic cancer cells", "experiment": "Summary of cell viability, pancreatic cancer cells", "settings": "72 hours, read-out: Inhibitory effect", "experimental": "as §1, §2, §4"}}, "note": "Where a name gives a salt, the structure may show the parent alone. Read-outs that look alike come from different tables or passages of the source."}
{"smiles": "C[C@@H](NCCCc1cccc(C(F)(F)F)c1)c1cccc2ccccc12", "note": "[Cinacalcet HCl, Cinacalcet hydrochloride]", "values": [{"measurement": "viability at 10 µM", "setting": "[1]; HepG2, 10 μM, 72 hours, test 0524-20 min", "value": 106, "unit": "%"}, {"measurement": "viability at 10 µM", "setting": "[1]; HepG2, 10 μM, 72 hours, test 0526-20 min", "value": 133, "unit": "%"}, {"measurement": "viability at 10 µM", "setting": "[1]; HepG2, 10 μM, 72 hours, test 0529-20 min", "value": 116, "unit": "%"}, {"measurement": "viability at 10 µM", "setting": "[1]; HepG2, 10 μM, 72 hours, test 0531-20 min", "value": 89.5, "unit": "%"}, {"measurement": "viability at 10 µM", "setting": "[1]; HepG2, 72 h, 10 μM, average of tests", "value": 111, "unit": "%"}, {"measurement": "viability at 10 µM", "setting": "[2]; 72 h, average of tests", "value": 28.3, "unit": "%"}, {"measurement": "viability at 10 µM", "setting": "[2]; 72 hours, test 0510-10 min", "value": 26.6, "unit": "%"}, {"measurement": "viability at 10 µM", "setting": "[2]; 72 hours, test 0512-10 min", "value": 20, "unit": "%"}, {"measurement": "viability at 10 µM", "setting": "[2]; 72 hours, test 0515-10 min", "value": 52.3, "unit": "%"}, {"measurement": "viability at 10 µM", "setting": "[2]; 72 hours, test 0517-10 min", "value": 14.5, "unit": "%"}, {"measurement": "viability at 10 µM", "setting": "[3]; 72 h, average of tests", "value": 110, "unit": "%"}, {"measurement": "viability at 10 µM", "setting": "[3]; 72 hours, test 0602-30 min", "value": 89, "unit": "%"}, {"measurement": "viability at 10 µM", "setting": "[3]; 72 hours, test 0605-10 min", "value": 107, "unit": "%"}, {"measurement": "viability at 10 µM", "setting": "[3]; 72 hours, test 0607-10 min", "value": 132, "unit": "%"}, {"measurement": "viability at 10 µM", "setting": "[3]; 72 hours, test 0609-10 min", "value": 113, "unit": "%"}, {"measurement": "viability at 10 µM", "setting": "[4]; ASPC1, 10 μM, 72 hours, test 1-4-30 min", "value": 71.9, "unit": "%"}, {"measurement": "viability at 10 µM", "setting": "[4]; ASPC1, 10 μM, 72 hours, test 1-7-3-30 min", "value": 61.6, "unit": "%"}, {"measurement": "viability at 10 µM", "setting": "[4]; ASPC1, 10 μM, 72 hours, test 1-7-4-30 min", "value": 81.7, "unit": "%"}, {"measurement": "viability at 10 µM", "setting": "[4]; ASPC1, 10 μM, 72 hours, test 1-7-7-30 min", "value": 60.4, "unit": "%"}, {"measurement": "viability at 10 µM", "setting": "[4]; ASPC1, 72 h, 10 μM, Average of tests", "value": 68.9, "unit": "%"}, {"measurement": "viability at 10 µM", "setting": "[5]; NCI-H1650, 10 μM, 72 hours, test 1-10 min", "value": 86.8, "unit": "%"}, {"measurement": "viability at 10 µM", "setting": "[5]; NCI-H1650, 10 μM, 72 hours, test 2-20 min", "value": 67.5, "unit": "%"}, {"measurement": "viability at 10 µM", "setting": "[5]; NCI-H1650, 10 μM, 72 hours, test 3-20 min", "value": 76.8, "unit": "%"}, {"measurement": "viability at 10 µM", "setting": "[5]; NCI-H1650, 10 μM, 72 hours, test 4-20 min", "value": 75.2, "unit": "%"}, {"measurement": "viability at 10 µM", "setting": "[5]; NCI-H1650, 72 h, 10 μM, Average of tests", "value": 76.5, "unit": "%"}, {"measurement": "viability at 10 µM", "setting": "[6]", "value": 80, "unit": "%"}, {"measurement": "viability at 72 h, 10 µM", "setting": "[7]; average of tests, read-out: survival rate (viability) of cells", "value": 76.1, "unit": "%"}, {"measurement": "viability at 72 h, 10 µM", "setting": "[7]; summary, normal pulmonary epithelial cell line, read-out: Inhibitory effect", "value": 76.1, "unit": "%"}, {"measurement": "viability at 72 h, 10 µM", "setting": "[7]; test 0510-10 min, read-out: survival rate (viability) of cells", "value": 70.5, "unit": "%"}, {"measurement": "viability at 72 h, 10 µM", "setting": "[7]; test 0512-10 min, read-out: survival rate (viability) of cells", "value": 72.9, "unit": "%"}, {"measurement": "viability at 72 h, 10 µM", "setting": "[7]; test 0515-10 min, read-out: survival rate (viability) of cells", "value": 72.2, "unit": "%"}, {"measurement": "viability at 72 h, 10 µM", "setting": "[7]; test 0517-10 min, read-out: survival rate (viability) of cells", "value": 89, "unit": "%"}, {"measurement": "viability at 10 µM", "setting": "[8]; 72 h, average of tests", "value": 113, "unit": "%"}, {"measurement": "viability at 10 µM", "setting": "[8]; 72 hours, test 7-3-30 min", "value": 129, "unit": "%"}, {"measurement": "viability at 10 µM", "setting": "[8]; 72 hours, test 7-4-30 min", "value": 109, "unit": "%"}, {"measurement": "viability at 10 µM", "setting": "[8]; 72 hours, test 7-7-30 min", "value": 104, "unit": "%"}, {"measurement": "viability at 10 µM", "setting": "[8]; 72 hours, test -4-30 min", "value": 108, "unit": "%"}, {"measurement": "viability at 10 µM", "setting": "[9]; PC-3, 10 μM, 72 hours, test PC-3-0524-10 min", "value": 103, "unit": "%"}, {"measurement": "viability at 10 µM", "setting": "[9]; PC-3, 10 μM, 72 hours, test PC-3-0526-10 min", "value": 132, "unit": "%"}, {"measurement": "viability at 10 µM", "setting": "[9]; PC-3, 10 μM, 72 hours, test PC-3-0529-10 min", "value": 120, "unit": "%"}, {"measurement": "viability at 10 µM", "setting": "[9]; PC-3, 10 μM, 72 hours, test PC-3-0531-10 min", "value": 135, "unit": "%"}, {"measurement": "viability at 10 µM", "setting": "[9]; PC-3, 72 h, 10 μM, average of tests", "value": 122, "unit": "%"}, {"measurement": "viability at 10 µM", "setting": "[10]; 72 h, average of tests", "value": 134, "unit": "%"}, {"measurement": "viability at 10 µM", "setting": "[10]; 72 hours, test 0612-20 min", "value": 143, "unit": "%"}, {"measurement": "viability at 10 µM", "setting": "[10]; 72 hours, test 0614-20 min", "value": 125, "unit": "%"}, {"measurement": "viability at 10 µM", "setting": "[10]; 72 hours, test 0616-20 min", "value": 152, "unit": "%"}, {"measurement": "viability at 10 µM", "setting": "[10]; 72 hours, test 0619-20 min", "value": 117, "unit": "%"}, {"measurement": "viability at 10 µM", "setting": "[11]", "value": 111, "unit": "%"}, {"measurement": "viability at 10 µM", "setting": "[12]", "value": 82.4, "unit": "%"}]}
